Legend:
[1] = system: EGFR gene; experiment: Genomic DNA PCR assessment of large deletions in EGFR gene; assay type: cell-based, Human; conditions: gRNA alone, not paired
Method: After CRISPR reactions, genomic DNA was prepared for PCR amplification of the target region from EGFR gene. PCR-amplified DNA was then analyzed by electrophoresis through a 1% agarose gel for 75 minutes at 80v. DNA was stained with SYBR Safe. Lanes 1 and 10: NEB 2 Log Ladder; Lane 2: Scrambled gRNA; Lane 3: L858R gRNA alone; Lane 4: EGFR 21-22 SureKill gRNA 19 alone; Lane 5: EGFR 21-22 SureKill gRNA 27 alone; Lane 6: EGFR 21-22 SureKill gRNA 28+L858R gRNA; Lane 7: EGFR 21-22 SureKill gRNA 27+L858R gRNA; Lane 8: EGFR 21-22 SureKill gRNA 19+L858R gRNA; Lane 9: EGFR 21-22 SureKill gRNA 28 alone. On the left side of the image are markers indicating DNA size in bp. Expected dropout size of EGFR 21-22 SureKill gRNA 19+L858R gRNA: 316 bp. Expected dropout size of EGFR 21-22 SureKill gRNA 27+L858R gRNA: 417 bp. Expected dropout size of EGFR 21-22 SureKill gRNA 28+L858R gRNA: 463 bp. Dropout bands are indicated by asterisks.
Human lung squamous cell carcinoma NCI-H1703 clone 44-25 cells were derived from NCI-H1703 cells (#CRL-5889) which were purchased from ATCC (Manassas, VA, USA). NCI-H1703 clone 44-25 cells contains R34G mutation (C 4 G) in NFE2L2 gene. […]
(§1) Transfections were carried out using the Lonza Nuclefector 4d. […] RNPs were complexed at 250:50 pmol for 30 minutes prior to transfection, during which time cells were harvested and counted. […]

[2] = system: EGFR; experiment: cDNA PCR analysis of exon skipping / full-size transcript in EGFR; assay type: cell-based, Human; conditions: gRNA on its own; PDMR lung adenocarcinoma cells
Method: After CRISPR reactions, total RNA was prepared, and cDNA synthesized for PCR amplification of the target region from EGFR. PCR-amplified DNA was then analyzed by electrophoresis through a 1% agarose gel for 75 minutes at 80v. DNA was stained with SYBR Safe. Lanes 1 and 13: NEB 2 Log Ladder; Lane 2: Scrambled gRNA; Lane 3: EGFR 21-22 SureKill gRNA 11 alone; Lane 4: EGFR 21-22 SureKill gRNA 13 alone; Lane 5: EGFR 21-22 SureKill gRNA 16 alone; Lane 6: EGFR 21-22 SureKill gRNA 17 alone; Lane 7: EGFR 21-22 SureKill gRNA 19 alone; Lane 8: EGFR 21-22 SureKill gRNA 22 alone; Lane 9: EGFR 21-22 SureKill gRNA 23 alone; Lane 10: EGFR 21-22 SureKill gRNA 27 alone; Lane 11: EGFR 21-22 SureKill gRNA 28 alone; Lane 12: EGFR 21-22 SureKill gRNA 29 alone. On the left side of the image are markers indicating DNA size in bp.
After CRISPR reactions, total RNA was prepared, and cDNA synthesized for semi-quantitative PCR amplification of the target region from EGFR. PCR amplification was performed for 25 cycles. PCR-amplified DNA was then analyzed by electrophoresis through a 1% agarose gel for 75 minutes at 80v. DNA was stained with SYBR Safe. […]
as §1

L858R gRNA: guide RNA TCAAGATCACAGATTTTGGG, SEQ ID NO:8, targets EGFR L858R mutation (listed as DNA, chemistry not given here)
large deletions (genomic DNA PCR) [1]: does not induce a large deletion
exon skipping (cDNA analysis) [2]: induced some level of exon skipping
